Measurements taken from patent US20090156509A1, “Tri-peptide Inhibitors of Serine Elastases” (Accuthera, Inc., priority 2007, published 2009).
≈ marks a conversion by molar mass, not a printed value.

Experiments:
[1] = Solubility in 0.1 M PBS by LC-MS; format: physicochemical; conditions: aqueous buffer, kinetic from dmso stock; 0.1 M PBS pH 7.4, 2% DMSO, 2 hours at 37° C.
Procedure: Solubility of test compounds was measured by adding small volumes of DMSO stock solutions (final concentration 2% DMSO) to 0.1 M PBS (pH 7.4) and incubating for 2 hours at 37° C. Subsequently, the samples were filtered and the concentration of test compounds was determined by LC-MS.

[2] = Protein binding in dog plasma by equilibrium dialysis; format: in vitro ADME; conditions: 10 μM, 6 hours at 37° C.
Procedure: Protein binding of test compounds in dog plasma was assessed by performing equilibrium dialysis with plasma containing test compound (10 μM) against 0.1 M PBS (pH 7.4). Following incubation (6 hours at 37° C.), the parent compound was measured in both plasma and buffer compartments by LC-MS and the percentage of compound bound to plasma proteins determined. […] Generally it is believed that only the unbound drug is available for pharmacological action.

[3] = Plasma stability in dog plasma; format: in vitro ADME; conditions: 37° C., 2 hours, read-out: Plasma Stability (t1/2)
Procedure: Plasma stability of test compounds was accessed by incubating with dog plasma (37° C. at 1 μM) for 2 hours. Aliquots were taken at pre-defined times and the disappearance of parent compound was monitored by LC-MS.

[4] = target: T1, PR3 (human neutrophil proteinase 3) (Homo sapiens, UniProt P24158); test: PR3 enzyme inhibition, Ki determination; format: biochemical; conditions: substrate Boc-Ala-Pro-Nva-4-chloro-SBzl, pH 7.6
T1 construct: Enzymes PR3 and HNE (HLE) were purchased from Athens Research and Technology (Athens, Ga.) or Elastin Products (Owensville, Mich.); purchased Athens Research and Technology (Athens, Ga.) or Elastin Products (Owensville, Mich.)
T1 sequence (P24158 28-248): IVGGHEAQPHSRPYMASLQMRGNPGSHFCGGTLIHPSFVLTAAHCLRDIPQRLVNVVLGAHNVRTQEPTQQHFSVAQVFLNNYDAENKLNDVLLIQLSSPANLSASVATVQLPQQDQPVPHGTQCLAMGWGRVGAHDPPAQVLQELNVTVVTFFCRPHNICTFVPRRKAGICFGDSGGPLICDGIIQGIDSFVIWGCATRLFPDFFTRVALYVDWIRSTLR
Procedure: (§1) The assays for measurement of PR3 and HNE enzyme and inhibitory activity were performed generally as described by Coeschott et al., Proc. Nat. Acad. Sci. USA, 96: 6261-6266, (1999). Kinetic characterization was performed generally by the techniques of Wieczorek et al., Archives of Biochem. and BioPhys., 367: 193-201 (1999). Enzymes PR3 and HNE (HLE) were purchased from Athens Research and Technology (Athens, Ga.) or Elastin Products (Owensville, Mich.).
(§2) The substrate used for HNE was MeO-Suc-Ala-Ala-Pro-Val-pNA, in 0.05 M sodium phosphate/0.1 M NaCl, pH 7.6, containing 0.001% Triton X-100 and 5% DMSO. The substrate used for PR3 was Boc-Ala-Pro-Nva-4-chloro-SBzl in 0.05 M potassium phosphate/0.1 M KCl, pH 7.6, containing 0.001% Triton X-100, and 10% DMSO. The cleavage of the thiobenzyl ester was detected with 250 μM […] (5′,5′-dithiobis-2-nitrobenzoic acid).

[5] = target: T2, HNE (human neutrophil elastase) (Homo sapiens, UniProt P08246); test: HNE enzyme inhibition, kinetic Ki determination; format: biochemical; conditions: for Ki: substrate MeO-Suc-Ala-Ala-Pro-Val-pNA, pH 7.6, read-out: Ki (NE)
T2 construct: Enzymes PR3 and HNE (HLE) were purchased from Athens Research and Technology (Athens, Ga.) or Elastin Products (Owensville, Mich.); purchased Athens Research and Technology (Athens, Ga.) or Elastin Products (Owensville, Mich.)
T2 sequence (P08246 30-267): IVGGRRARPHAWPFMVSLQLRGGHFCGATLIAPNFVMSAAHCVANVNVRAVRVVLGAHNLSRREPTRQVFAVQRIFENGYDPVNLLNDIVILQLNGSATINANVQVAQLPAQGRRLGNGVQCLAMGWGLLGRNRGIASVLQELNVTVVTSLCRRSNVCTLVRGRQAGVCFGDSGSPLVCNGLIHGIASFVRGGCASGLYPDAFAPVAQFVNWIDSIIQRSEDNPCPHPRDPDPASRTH
Procedure: as §1, §2
The concentration of active site of HNE was determined by titration with N-benzyloxycarbonyl-Ala-Ala-Pro-azaAla p-nitrophenyl ester or an alternative method. For the alternative method, the concentration of the active center of a HNE solution was first titrated with the above p-nitrophenyl ester, this HNE solution was then used to measure the active center concentration of an eglin c solution. Aliquots of the eglin c solution were stored at −70° C. and employed as a second standard to assay the activity of any newly prepared HNE solutions. No change in the activity of eglin c could be detected over a 3 year time interval as long as the solution was stored at −70° C. An important factor which influences the HNE assay is the method of dissolution of lyophilized enyme: if HNE is obtained in the lyophilized state, the protease solution should be dissolved, aliquoted, and stored at −20° C. for at least 48 hours prior to assay, so that the dried protein can be completely hydrated. Freshly dissolved enzyme which has not been stored for 48 hours may have proteolytic activity which is 10%-20% less that of stored enzyme.
Consequently, it is not always easy to achieve conditions in which the initial concentration of free inhibitor, [I]o, is much larger than the initial concentration of free enzyme, [E]o, i.e. the condition of [I]o≧10 [E]o is not easily fulfilled. […]
can only be employed when the condition of [I]o≧10 [E]o is fulfilled. In those cases in which the condition of [I]o≧10 [E]o is not met, the experimental data is analyzed using the Henderson equations according to the classic procedure (Henderson, P. J. F. Biochem. J. 127: 321, 1972) or with equations derived for slow-binding inhibition (Ying, Q-L. et al, Biochemistry 33: 5445, 1994). […]

solubility at 2 h [1] [µM] | Plasma Protein Binding (% free) [2] [% free] | Protein binding in dog plasma (% bound) [2] [% bound] | half-life at 1 μM [3] [h] | Ki [4] [nM] | Ki [5] [nM] | Ki for HLE (in words) ([5]; tight binding inhibitor of HLE) | SMILES
69 (≈ 45.5 µg/mL) | 8.0 | 92 | > 1.67 | 8.4 | 0.22 |  | CC(C)[C@H](NC(=O)[C@@H]1CCCN1C(=O)[C@@H](NC(=O)CCCCCNC(=O)c1ccccn1)C(C)C)C(=O)c1nnc(-c2ccccc2)o1 [AI-158]
164 (≈ 95.7 µg/mL) | 19.0 | 81 | > 1.67 |  |  |  | CC(C)[C@H](NC(=O)CCCCCNC(=O)c1ccccn1)C(=O)N1CCC[C@H]1C(=O)N[C@H](C(=O)C(F)(F)F)C(C)C [AI-167]
179 (≈ 115 µg/mL) | 17.0 | 83 | > 1.67 | 3.9 | 0.2 |  | CC(C)[C@H](NC(=O)[C@@H]1CCCN1C(=O)[C@@H](NC(=O)CCCCCNC(=O)c1ccccn1)C(C)C)C(=O)c1nnc(C(C)(C)C)o1 [AI-168]
< 10 | 1.0 |  | > 1.67 | 24 | 0.24 | subnanomolar range | Cc1cccc(Cc2nnc(C(=O)[C@@H](NC(=O)[C@@H]3CCCN3C(=O)[C@@H](NC(=O)OCc3ccccc3)C(C)C)C(C)C)o2)c1 [CE-2072, reference compound]
